The subject of one series is K562 cells. The series is described as follows: Cell growth inhibitory effect, K562 cells (Cell counting Kit-8, 72 hours).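 For all read-outs here: Read-out is formazan absorbance at 450 nm from WST-8 reduction after a 3 h color reaction, with K562 and U937 cells grown in 96-well plates.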 The following applies: for IC50: Homo sapiens, K562, 72 h, read-out: K562 cells (IC50 value: μM); for Ratio (U937 cells/K562 cells): IC50 U937 cells / IC50 K562 cells.
The next series concerns U937 cells. Nature of the series: Cell growth inhibitory effect, U937 cells (Cell counting Kit-8, 72 hours). It counts as cell-based. The following applies: Homo sapiens, U-937, BCR-ABL negative U937 cells, WST-8 absorbance; for IC50: read-out: U937 cells (IC50 value: μM); for pIC50: continuation of Table 3, read-out: U937 cells (IC50 value: nμM). As for the experimental part: The plate was incubated in a CO2 incubator overnight. […] The plate was incubated in a CO2 incubator. After 72 hours, 20 μl
(In general: Tetrazolium assays rely on reduction of a dye to a coloured formazan, in cell work by metabolically active cells.)

pIC50: −log10 of the molar value. Where two headings read alike, the source gives them in different places.

Method for K562 cells: of Cell counting Kit-8 (5 mmol/l WST-8, 0.2 mmol/1 1-Methoxy PMS, 150 mmol/l NaCl) (manufactured by Dojindo) was added to each well. After reaction for color development in a CO2 incubator for 3 hours, an absorbance of formazan, generated by reduction of WST-8 was determined at 450 nm using Multi-level counter ARVOsx (manufactured by Wallac).
K562 cells and U937 cells (purchased from American Type Culture Collection) were cultured in a RPMI-1640 medium (manufactured by Sigma) containing 10% (v/v) fetal calf serum (FCS) (manufactures by Sigma) (RPMI-1640/FCS). K562 cells and U937 cells were seeded at a density of 5000 cells/100 μl/well and 4000 cells/100 μl/well in each of 96-hole-plate (manufactured by costar), respectively. The plate was incubated in a CO2 incubator overnight. […] The resulting solution was diluted 500 times in a RPMI-1640/FCS medium and then 100 μl of the diluent was added in a well. The plate was incubated in a CO2 incubator. After 72 hours, 20 μl

Usually IC50 stands for the concentration that gives 50% inhibition. The melting point is the temperature, or range, at which the solid turns liquid. Regarding `COc1cc(C(=O)Nc2ccc(C)c(Nc3nccc(-c4cncc(Br)c4)n3)c2)ccc1CN1CCN(C)CC1.Cl` [Example 14, 3-methoxy-4-(4-methylpiperazin-1-ylmethyl)-N-{3-[4-(5-bromopyridin-3-yl)pyrimidin-2-ylamino]-4-methylphenyl}benzamide hydrochloride], the melting point is 168 to 169 °C (dec.). In the series on K562 cells, the IC50 is 0.0079 µM and the “Ratio (U937 cells/K562 cells)” value is 253. Moreover, the 50% inhibitory concentration (IC50) in the series with U937 cells was found to be 2 µM.

On to `CCN1CCN(Cc2ccc(C(=O)Nc3ccc(C)c(Nc4nccc(-c5cncnc5)n4)c3)cc2C(F)(F)F)CC1.Cl` [Example 16, 4-(4-ethylpiperazin-1-ylmethyl)-3-trifluoromethyl-N-{4-methyl-3-[4-(5-pyrimidinyl)pyrimidin-2-ylamino]phenyl}benzamide hydrochloride], for which the melting point is 256 to 259 °C (dec.). Besides, in the series on K562 cells, the IC50 was found to be 0.0011 µM and the “Ratio (U937 cells/K562 cells)” value came out at 3727. In the series with U937 cells, the IC50 turned out to be 4.1 µM.

On to `CCN1CCN(Cc2ccc(C(=O)Nc3ccc(C)c(Nc4nccc(-c5cncc(Br)c5)n4)c3)cc2C(F)(F)F)CC1.Cl` [Example 18, 4-(4-ethylpiperazin-1-ylmethyl)-3-trifluoromethyl-N-{3-[4-(5-bromopyridin-3-yl)pyrimidin-2-ylamino]-4-methylphenyl}benzamide hydrochloride], for which the melting point is 166 to 172 °C (dec.). In addition, in the series with K562 cells, the IC50 was found to be 0.0048 µM and the “Ratio (U937 cells/K562 cells)” value turned out to be 958. For the same compound, the half-maximal inhibitory concentration (IC50) with U937 cells turned out to be 4.6 µM.

By pIC50 is commonly meant the IC50 on a negative log10 scale, so that one unit is a factor of ten. In turn, `Cc1ccc(NC(=O)c2ccc(CN3CCN(C)CC3)c(Cl)c2)cc1Nc1nccc(-c2cncnc2)n1.Cl` [Example 20, 3-chloro-4-(4-methylpiperazin-1-ylmethyl)-N-{4-methyl-3-[4-(5-pyrimidinyl)pyrimidin-2-ylamino]phenyl}benzamide hydrochloride] displayed a melting point of 197 to 200 °C. Moreover, in the series on K562 cells, the IC50 came out at 0.0026 µM and the “Ratio (U937 cells/K562 cells)” value is on record as 11154. Also, in the series on U937 cells, the pIC50 was 4.54.

For `Cc1ccc(NC(=O)c2ccc(CN3CCN(C)CC3)c(C(F)(F)F)c2)cc1Nc1cc(-c2cncnc2)ccn1.Cl` [Example 23, 4-(4-methylpiperazin-1-ylmethyl)-3-trifluoromethyl-N-{4-methyl-3-[4-(5-primidinyl)pyridin-2-ylamino]phenyl}benzamide hydrochloride], the melting point was 203 to 206 °C (dec.). Further, in the series on K562 cells, the IC50 is 0.0011 µM and the “Ratio (U937 cells/K562 cells)” value came to 4545. The negative-log IC50 (pIC50) in the series on U937 cells was 5.30.

In the case of `CCN1CCN(Cc2ccc(C(=O)Nc3ccc(C)c(Nc4cc(-c5cncnc5)ccn4)c3)cc2C(F)(F)F)CC1.Cl` [Example 25, 4-(4-ethylpiperazin-1-ylmethyl)-3-trifluoromethyl-N-{4-methyl-3-[4-(5-pyrimidinyl)pyridin-2-ylamino]phenyl}benzamide hydrochloride], the melting point is 254 to 256 °C (dec.). In addition, in the series with K562 cells, the half-inhibitory concentration (IC50) was determined as 0.0018 µM and the “Ratio (U937 cells/K562 cells)” value turned out to be 2111. In the series on U937 cells, the negative-log IC50 (pIC50) was 5.42.

On to `CCN1CCN(Cc2ccc(C(=O)Nc3ccc(C)c(Nc4cc(-c5cccnc5)ccn4)c3)cc2C(F)(F)F)CC1.Cl` [Example 27, 4-(4-ethylpiperazin-1-ylmethyl)-3-trifluoromethyl-N-{4-methyl-3-[4-(3-pyridyl)pyridin-2-ylamino]phenyl}benzamide hydrochloride], for which the melting point was 230 to 235 °C (dec.). Also, in the series on K562 cells, the IC50 turned out to be 0.0025 µM and the “Ratio (U937 cells/K562 cells)” value was 1040. In addition, the pIC50 with U937 cells is 5.59.

Turning to `Cc1ccc(NC(=O)c2ccc(CN3CCN(C)CC3)c(C(F)(F)F)c2)cc1Nc1cc(-c2cccnc2)ncn1.Cl` [Example 31, 4-(1-methylpiperazin-4-ylmethyl)-3-trifluoromethyl-N-{4-methyl-3-[6-(3-pyridyl)pyrimidin-4-ylamino]phenyl}benzamide hydrochloride], the melting point was 190 to 194 °C (dec.). Further, in the series on K562 cells, the IC50 was found to be 0.0069 µM and the “Ratio (U937 cells/K562 cells)” value turned out to be 304. Also, the negative logarithm of the IC50 (pIC50) with U937 cells is 5.68.

Regarding `Cc1ccc(NC(=O)c2ccc(CN3CCN(C)CC3)c(C(F)(F)F)c2)cc1Nc1cc(-c2cncnc2)ncn1.Cl` [Example 33, 4-(1-methylpiperazin-4-ylmethyl)-3-trifluoromethyl-N-{4-methyl-3-[6-(5-pyrimidinyl)pyrimidin-4-ylamino]phenyl}benzamide hydrochloride], the melting point is 203 to 207 °C (dec.). Besides, in the series with K562 cells, the IC50 came out at 0.0084 µM and the “Ratio (U937 cells/K562 cells)” value worked out at 1310. Besides, in the series on U937 cells, the pIC50 was 4.96.

`Cc1ccc(NC(=O)c2ccc(CN3CCN(CCF)CC3)c(C(F)(F)F)c2)cc1Nc1nccc(-c2cncnc2)n1.Cl` [Example 35, 4-[4-(2-fluoroethyl)piperazin-1-ylmethyl]-3-trifluoromethyl-N-{4-methyl-3-[4-(5 yrimidinyl)pyrimidin-2-ylamino]phenyl}benzamide hydrochloride]: the melting point is 213 to 233 °C (dec.). Also, in the series on K562 cells, the concentration for half-maximal inhibition (IC50) amounted to 0.0034 µM and the “Ratio (U937 cells/K562 cells)” value was determined as 3235. For the same compound, in the series with U937 cells, the negative logarithm of the IC50 (pIC50) is 4.96.

On to `Cc1ccc(NC(=O)c2ccc(CN3CCN(CCO)CC3)c(C(F)(F)F)c2)cc1Nc1nccc(-c2cncnc2)n1.Cl` [Example 37, 4-[4-(2-hydroxyethyl)piperazin-1-ylmethyl]-3-trifluoromethyl-N-{4-methyl-3-[4-(5-pyrimidinyl)pyrimidin-2-ylamino]phenyl}benzamide hydrochloride], for which the melting point is 248 to 255 °C (dec.). For the same compound, in the series with K562 cells, the IC50 is 0.0014 µM and the “Ratio (U937 cells/K562 cells)” value is on record as 7143. The pIC50 in the series with U937 cells is 5.00.

As for `Cc1ccc(NC(=O)c2ccc(CN3CCNCC3)c(C(F)(F)F)c2)cc1Nc1nccc(-c2cncc(Br)c2)n1.Cl` [Example 40, 4-(1-piperazinylmethyl)-3-trifluoromethyl-N-{3-[4-(5-bromopyridin-3-yl)pyrimidin-2-ylamino]-4-methylphenyl}benzamide hydrochloride], the melting point was 176 to 182 °C (dec.). Besides, in the series on K562 cells, the half-maximal inhibitory concentration (IC50) came to 0.0039 µM and the “Ratio (U937 cells/K562 cells)” value stood at 1128. Also, in the series on U937 cells, the pIC50 was 5.36.

`Cc1ccc(NC(=O)c2ccc(CN3CCNCC3)c(C(F)(F)F)c2)cc1Nc1cc(-c2cccnc2)ccn1.Cl` [Example 42, 4-(1-piperazinylmethyl)-3-trifluoromethyl-N-{4-methyl-3-[4-(3-pyridyl)pyridin-2-ylamino]phenyl}benzamide hydrochloride]: the melting point is 190 to 195 °C (dec.). Further, in the series with K562 cells, the IC50 amounted to 0.0068 µM and the “Ratio (U937 cells/K562 cells)” value amounted to 206. For the same compound, the pIC50 in the series with U937 cells was 5.85.

Turning to `Cc1ccc(NC(=O)c2ccc(CN3CCNC(C(N)=O)C3)c(C(F)(F)F)c2)cc1Nc1nccc(-c2cncnc2)n1.Cl` (centres unmarked) [Example 45, 4-(3-carbamoylpiperazin-1-ylmethyl)-3-trifluoromethyl-N-{4-methyl-3-[4-(5-pyrimidinyl)pyrimidin-2-ylamino]phenyl}benzamide hydrochloride], the melting point is 205 to 208 °C. Besides, in the series with K562 cells, the IC50 is 0.0031 µM and the “Ratio (U937 cells/K562 cells)” value worked out at 4839. Besides, the negative-log IC50 (pIC50) with U937 cells was 4.82.

(Values after US7728131B2, “Amide derivative and medicine” (Nippon Shinyaku Co., Ltd., priority 2003, dated 2010).)
